Test results: patent US9060970B2, “Bridge-helix cap: target and method for inhibition of bacterial RNA polymerase” (priority 2011, dated 2015)
pIC50: −log10 of the molar value. Entries after “also recorded” stand apart in the source; their conditions may differ. Starred links: 1 amine or outer side, 2 acyl side, 3 side chain; linkers in the order of their positions; H or OH if unused. Positions of bridges follow the written chain, without caps; N, C: chain ends. Non-standard residues stand in square brackets, D forms with d. Residues, ends and D or L forms follow the SMILES beside them. *: point of attachment. X2 = C[C@H](Oc1ccc([C@H](N[*:1])C(=O)[*:2])cc1)[C@@]1(/C=C/C(=O)[*:3])CO1; X1 = CC(C)[C@H](O)[C@H](C)C(=O)*; aIle = CC[C@@H](C)[C@H](N)C(=O)O; dNMeF = CN[C@H](Cc1ccccc1)C(=O)O; aThr = C[C@H](O)[C@H](N)C(=O)O

Legend:
S. pyogenes = settings: references 1, 2; cited from earlier work
E. coli D21f2tolC = test: Spontaneous resistance frequency by plating on LB agar containing inhibitor; type: cell-based, Escherichia coli
Source text: Sal-Resistant Mutants Map to RNAP-Subunit Genes. To determine whether Sal kills bacteria by inhibiting RNAP, spontaneous Sal-resistant mutants were isolated, and genes for RNAP subunits in Sal-resistant mutants were PCR-amplified and sequenced (FIG. 3A). Spontaneous Sal-resistant mutants were isolated by plating high-density cultures of E. coli D21f2tolC (˜3×10^9 cells per plate) on agar containing Sal and identifying rare resistant colonies (FIG. 3B). For each Sal-resistant mutant, genomic DNA was prepared, and the genes for the largest RNAP subunit and the second-largest RNAP subunit—rpoC encoding RNAP β′ subunit and rpoB encoding RNAP β subunit were PCR-amplified and sequenced (FIG. 3C).
Co-Administration of Sal and Rifampin Reduces Spontaneous Resistance to Undetectable Levels.
Co-Administration of Sal and CBR703 Reduces Spontaneous Resistance to Undetectable Levels.
(§1) Isolation of Sal-Resistant Mutants: Spontaneous Sal-Resistant Mutants. E. coli D21f2tolC (6) was cultured to saturation in 5 ml LB broth (7) at 37° C., cultures were centrifuged, and cell pellets (˜3×10^9 cells) were re-suspended in 50 μl LB broth and plated on LB agar (7) containing 1.2 μg/ml Sal (a concentration four times the minimal concentration required to prevent growth of wild-type cells under these conditions), and incubated 24-48 h at 37° C. Sal-resistant mutants were identified by the ability to form colonies on this medium and were confirmed by re-streaking on the same medium.

human RNAPs = settings: human RNAP I, RNAP II, RNAP III; reference 4; cited from earlier work
Streptococcus pneumoniae = settings: references 1, 2; cited from earlier work
[1] = system: RNA synthesis in E. coli D21f2tolC; test: RNA synthesis in vivo ([14C]-uracil incorporation, macromolecular synthesis assay); type: cell-based, Escherichia coli; settings: Sal at two times MIC; 5, 10, 15 min after addition; effect seen at earliest time point (5 min)
Procedure: Sal Inhibits RNA Synthesis in vivo. To determine whether Sal inhibits RNAP in vivo, effects of Sal on RNA synthesis in vivo were assayed, and, as a control, effects of Sal on DNA synthesis in vivo were assayed. Sal was added to cultures of E. coli D21f2tolC growing in media containing either a radioactively labeled RNA-synthesis precursor ([^14C]-uracil) or a radioactively labeled DNA synthesis precursor ([^14C]-thymidine); aliquots were removed and mixed with trichloroacetic acid (TCA) 0, 5, 10, and 15 min thereafter to lyse cells and precipitate nucleic acids; TCA-precipitated nucleic acids were collected by vacuum filtration; and radioactivity in TCA-precipitated nucleic acids was quantified (FIG. 2A). […] The effect was specific; addition of Sal to bacterial cultures had no effect on DNA synthesis (FIG. 2B, right panel). It is concluded that Sal inhibits RNA synthesis in vivo, and it is inferred that Sal inhibits RNAP in vivo.
Measurement of Nucleic Acid Synthesis in vivo. Macromolecular synthesis assays were performed essentially as in reference 5. […] Radioactivity was quantified using a Typhoon Variable Mode Imager and ImageQuant v5 (Molecular Dynamics, Inc.).

[2] = system: Sal-resistant mutants of E. coli D21f2tolC (rpoC / rpoB substitutions); test: Broth microdilution resistance / cross-resistance levels of spontaneous Sal-resistant mutants; type: cell-based, Escherichia coli
Procedure: as §1
Quantitation of Resistance to Sal. Resistance to Sal was quantified by performing broth microdilution assays. Single colonies were inoculated into 3 ml LB broth, and incubated 3-6 h at 37° C. with shaking. Diluted aliquots (2×10^4 cells in 98 μl LB broth; concentrations determined using OD600=1 for 10^9 cells) were dispensed into wells of a 96-well plate, were supplemented with 2 μl of a 2-fold dilution series of Sal in methanol (final concentrations of […], 0.390, 0.195, 0.0975, 0.0488, 0.0244, 0.0122, and 0.00609 μg/ml) or 2 μl of a solvent blank, and were incubated 16 h at 37° C. with shaking. The minimum inhibitory concentration (MIC) was defined as the lowest tested concentration of Sal that inhibited bacterial growth by 95%.
Quantitation of Cross-Resistance to Rifampin and CBR703. Cross-resistance levels were determined analogously to resistance levels, using 0.12-0.78 μg/ml of rifampin (Sigma, Inc.) and 0.39-25 μg/ml of CBR703 (Maybridge, Inc.).

[3] = biological target: bacterial RNA polymerase (RNAP) (Escherichia coli, UniProt P0A8T7+P0A8V2); settings: in vitro; reference 4; read-out: IC50, inhibition of bacterial RNA polymerase in vitro; cited from earlier work
bacterial RNA polymerase (RNAP), sequence (P0A8V2 whole entry): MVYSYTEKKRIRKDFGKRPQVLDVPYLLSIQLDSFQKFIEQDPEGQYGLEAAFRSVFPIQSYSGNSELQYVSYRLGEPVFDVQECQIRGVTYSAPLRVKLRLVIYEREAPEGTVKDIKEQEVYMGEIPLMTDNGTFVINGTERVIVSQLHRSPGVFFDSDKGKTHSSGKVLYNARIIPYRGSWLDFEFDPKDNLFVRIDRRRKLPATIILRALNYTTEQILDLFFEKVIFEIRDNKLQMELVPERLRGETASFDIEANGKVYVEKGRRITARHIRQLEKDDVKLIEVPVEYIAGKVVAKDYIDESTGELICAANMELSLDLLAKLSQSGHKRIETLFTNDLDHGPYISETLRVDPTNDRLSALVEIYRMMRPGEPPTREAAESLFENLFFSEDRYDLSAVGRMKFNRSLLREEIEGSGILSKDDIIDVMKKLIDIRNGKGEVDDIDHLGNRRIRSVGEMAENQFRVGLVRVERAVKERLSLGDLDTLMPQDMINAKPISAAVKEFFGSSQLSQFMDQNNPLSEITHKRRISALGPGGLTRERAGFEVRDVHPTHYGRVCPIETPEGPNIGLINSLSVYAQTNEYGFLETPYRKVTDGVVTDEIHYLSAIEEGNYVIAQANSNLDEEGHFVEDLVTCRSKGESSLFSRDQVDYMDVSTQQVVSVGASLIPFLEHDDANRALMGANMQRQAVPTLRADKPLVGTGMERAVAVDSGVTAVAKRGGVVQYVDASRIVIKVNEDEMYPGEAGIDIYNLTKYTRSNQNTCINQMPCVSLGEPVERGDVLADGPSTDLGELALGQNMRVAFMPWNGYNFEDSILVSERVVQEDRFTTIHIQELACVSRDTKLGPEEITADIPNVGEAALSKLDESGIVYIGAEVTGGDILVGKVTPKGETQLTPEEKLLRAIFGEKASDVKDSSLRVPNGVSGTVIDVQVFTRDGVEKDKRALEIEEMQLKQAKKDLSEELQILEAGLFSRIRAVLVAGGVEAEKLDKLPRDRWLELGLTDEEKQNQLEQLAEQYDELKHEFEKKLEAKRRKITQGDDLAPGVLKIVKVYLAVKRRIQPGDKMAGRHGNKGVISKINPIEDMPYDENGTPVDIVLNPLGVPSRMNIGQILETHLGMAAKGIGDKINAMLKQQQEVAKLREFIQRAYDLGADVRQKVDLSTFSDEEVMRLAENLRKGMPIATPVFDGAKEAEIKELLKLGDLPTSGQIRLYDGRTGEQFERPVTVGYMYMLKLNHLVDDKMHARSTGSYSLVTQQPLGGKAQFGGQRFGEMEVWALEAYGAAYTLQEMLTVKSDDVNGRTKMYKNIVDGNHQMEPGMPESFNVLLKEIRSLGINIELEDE
bacterial RNA polymerase (RNAP), sequence (P0A8T7 whole entry): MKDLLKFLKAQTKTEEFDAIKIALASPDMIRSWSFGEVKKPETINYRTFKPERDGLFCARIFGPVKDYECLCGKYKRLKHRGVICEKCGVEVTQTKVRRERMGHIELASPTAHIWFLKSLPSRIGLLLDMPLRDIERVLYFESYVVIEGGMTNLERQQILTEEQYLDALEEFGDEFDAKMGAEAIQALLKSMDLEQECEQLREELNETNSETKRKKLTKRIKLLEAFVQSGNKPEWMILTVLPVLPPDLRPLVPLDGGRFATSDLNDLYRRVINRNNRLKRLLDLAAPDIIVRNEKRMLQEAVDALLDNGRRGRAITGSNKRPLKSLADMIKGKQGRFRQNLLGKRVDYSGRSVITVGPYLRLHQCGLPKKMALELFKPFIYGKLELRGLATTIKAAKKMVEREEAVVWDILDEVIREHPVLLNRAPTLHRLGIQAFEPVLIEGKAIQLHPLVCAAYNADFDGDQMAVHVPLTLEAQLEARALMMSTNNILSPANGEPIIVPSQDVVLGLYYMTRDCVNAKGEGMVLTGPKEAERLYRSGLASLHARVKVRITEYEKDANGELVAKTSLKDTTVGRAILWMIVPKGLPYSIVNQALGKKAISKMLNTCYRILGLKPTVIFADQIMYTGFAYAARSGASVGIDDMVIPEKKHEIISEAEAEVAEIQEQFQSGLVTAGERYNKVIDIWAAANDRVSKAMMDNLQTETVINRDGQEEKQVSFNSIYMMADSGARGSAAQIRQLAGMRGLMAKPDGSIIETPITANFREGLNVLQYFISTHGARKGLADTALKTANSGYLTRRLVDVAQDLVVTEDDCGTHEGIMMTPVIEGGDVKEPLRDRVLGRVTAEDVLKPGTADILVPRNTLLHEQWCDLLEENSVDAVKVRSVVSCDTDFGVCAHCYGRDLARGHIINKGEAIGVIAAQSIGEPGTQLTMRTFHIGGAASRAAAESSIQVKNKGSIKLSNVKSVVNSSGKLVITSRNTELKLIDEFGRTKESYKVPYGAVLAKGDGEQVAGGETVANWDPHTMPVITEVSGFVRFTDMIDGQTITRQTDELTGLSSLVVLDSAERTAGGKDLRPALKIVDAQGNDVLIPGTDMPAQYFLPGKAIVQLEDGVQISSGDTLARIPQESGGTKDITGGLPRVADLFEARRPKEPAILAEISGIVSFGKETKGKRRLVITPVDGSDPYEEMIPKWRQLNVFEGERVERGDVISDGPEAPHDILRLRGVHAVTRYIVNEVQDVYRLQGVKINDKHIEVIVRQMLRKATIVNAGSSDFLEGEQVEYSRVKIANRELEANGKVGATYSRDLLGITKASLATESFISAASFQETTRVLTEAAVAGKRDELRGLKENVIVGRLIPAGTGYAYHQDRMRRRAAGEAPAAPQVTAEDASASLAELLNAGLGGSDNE
bacterial RNA polymerase (RNAP), sequence (P0A7Z4 whole entry, further chain): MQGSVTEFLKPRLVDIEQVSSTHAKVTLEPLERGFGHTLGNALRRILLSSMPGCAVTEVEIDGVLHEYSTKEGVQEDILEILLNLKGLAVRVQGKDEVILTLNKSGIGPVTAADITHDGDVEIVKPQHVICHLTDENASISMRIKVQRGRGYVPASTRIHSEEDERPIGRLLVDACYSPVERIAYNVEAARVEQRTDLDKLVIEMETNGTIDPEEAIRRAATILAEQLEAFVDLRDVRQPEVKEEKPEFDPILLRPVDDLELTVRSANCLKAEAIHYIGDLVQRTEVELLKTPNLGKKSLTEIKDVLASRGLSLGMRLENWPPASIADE

CC[C@@H](C)[C@@H]1NC(=O)[C@H](NC(=O)[C@@H](C)[C@@H](O)C(C)C)[C@H](C)OC(=O)[C@H]2COC(=O)CNC(=O)/C=C/[C@@]3(CO3)[C@H](C)Oc3ccc(cc3)[C@H](NC1=O)C(=O)N(C)[C@H](Cc1ccccc1)C(=O)N[C@@H]([C@H](C)O)C(=O)N2 [Sal, salinamide A] (X1-[dT][aIle][X2][dNMeF][aThr][dS]; ester 1-C; linker 3-6 via G)
antibacterial activity (S. pyogenes): exhibits antibacterial activity
spontaneous resistance frequency (E. coli D21f2tolC; LB agar, each compound at 4×MIC, colonies counted after 24 h at 37° C.): 4×10^−9
frequency of spontaneous mutation to Sal-resistance (E. coli D21f2tolC; ~3×10^9 cells per plate, LB agar with 1.2 μg/ml Sal, 24-48 h at 37° C.): ~4 × 10^−9
inhibition of human RNAPs (human RNAPs): does not inhibit
antibacterial activity (Streptococcus pneumoniae): exhibits antibacterial activity
effect on RNA synthesis in vivo [1]: decreased immediately; also recorded: essentially stopped
resistance to Sal, all analyzed mutants ([2]; all analyzed Sal-resistant mutants (Tables 2, 3)): at least 2 fold
resistance level (MIC/MICwild-type) ([2]; rpoB (RNAP β subunit) 569 Ile→Ser): >16
resistance level (MIC/MICwild-type) ([2]; rpoB (RNAP β subunit) 675 Asp→Ala): >16
resistance level (MIC/MICwild-type) ([2]; rpoB (RNAP β subunit) 677 Asn→His): >16
resistance level (MIC/MICwild-type) ([2]; rpoB (RNAP β subunit) 677 Asn→Lys): >16
resistance level (MIC/MICwild-type) ([2]; rpoC (RNAP β′ subunit) 690 Asn→Asp): 16
resistance level (MIC/MICwild-type) ([2]; rpoC (RNAP β′ subunit) 697 Met→Val (one isolate also 1054 Thr→Ala)): >16
resistance level (MIC/MICwild-type) ([2]; rpoC (RNAP β′ subunit) 738 Arg→Cys): >16
resistance level (MIC/MICwild-type) ([2]; rpoC (RNAP β′ subunit) 738 Arg→His): >16
resistance level (MIC/MICwild-type) ([2]; rpoC (RNAP β′ subunit) 738 Arg→Pro): >16
resistance level (MIC/MICwild-type) ([2]; rpoC (RNAP β′ subunit) 738 Arg→Ser): >16
resistance level (MIC/MICwild-type) ([2]; rpoC (RNAP β′ subunit) 748 Ala→Glu): 16
resistance level (MIC/MICwild-type) ([2]; rpoC (RNAP β′ subunit) 758 Pro→Ser): 16
resistance level (MIC/MICwild-type) ([2]; rpoC (RNAP β′ subunit) 763 Phe→Cys): 16
resistance level (MIC/MICwild-type) ([2]; rpoC (RNAP β′ subunit) 775 Ser→Ala): 8
resistance level (MIC/MICwild-type) ([2]; rpoC (RNAP β′ subunit) 779 Ala→Thr): >16
resistance level (MIC/MICwild-type) ([2]; rpoC (RNAP β′ subunit) 779 Ala→Val): >16
resistance level (MIC/MICwild-type) ([2]; rpoC (RNAP β′ subunit) 780 Arg→Cys): >16
resistance level (MIC/MICwild-type) ([2]; rpoC (RNAP β′ subunit) 783 Leu→Arg): >16
resistance to Sal, thirteen mutants ([2]; thirteen of the Sal-resistant mutants): > 16 fold
pIC50 [3]: 6.30
